The test system of data set [1] is 20S proteasome, ChT-L activity. The conditions noted are these: cited from earlier work.
For data set [2], the system named is 20S proteasome, T-L activity. The following applies: cited from earlier work.
The test system of data set [3] is 20S proteasome, C-L activity. The following applies: cited from earlier work.
Data set [4] concerns HCT-116. The arrangement: method as in PMID 10805568. The conditions noted are these: human cancer cells HCT-116; read-out: cytotoxic activity IC50, HCT-116; cited from earlier work.
The test system of data set [5] is HL-60. The arrangement: method as in PMID 10805568. The conditions noted are these: human cancer cells HL-60; read-out: cytotoxic activity IC50, HL-60; cited from earlier work.
Data set [6] relates to 20S proteasome. Further details: method as in PMID 10805568. The following applies: ChT-L, T-L and C-L; cited from earlier work.
Data set [7] deals with bovine α-chymotrypsin. The arrangement: method as in PMID 15746161. The following applies: determined previously in the authors' laboratory; cited from earlier work.
Data set [8] relates to rat and porcine 20S proteasomes, T-L. The arrangement: method as in PMID 19054805. The conditions noted are these: cited from earlier work.
In data set [9] the test system is rat and porcine 20S proteasomes, ChT-L. Further details: method as in PMID 19054805. The following applies: cited from earlier work.
Data set [10] addresses human 20S proteasome, caspase-like (C-L) activity (Homo sapiens, UniProt P28072). In words: C-L activity of SDS-activated human 20S proteasome (Z-LLE-AMC). The conditions noted are these: SDS-activated human 20S.
Method: (§1) An assay buffer was composed of 50 mM Tris-HCl (pH 8.1) and 0.02% (w/v) SDS (exceptionally, T-L activity was measured in Tris buffer without SDS, that may trigger precipitation of substrates containing the guanidino group [21]). […] The SFTI-1 analogues were incubated with 20S proteasome in assay buffer at 37°C for 30 min. Reactions were performed in 96-well black BRAND plates (Germany). The final volume of the solution in each well was 200 µL. […] Proteasomal subsite activities were determined by monitoring the AMC liberation over time with a Fluorostar Omega (BMG Labtech, Germany) using excitation and emission wavelengths of 380 nm and 450 nm, respectively. […] Association constants Ka were measured as described previously [14] and calculated using a two-parameter fit model (using the GraFit software package).
For data set [11], the system named is rat and porcine 20S proteasomes, C-L site. Further details: method as in PMID 19054805. The conditions noted are these: cited from earlier work.
In data set [12] the target is human 20S proteasome, chymotrypsin-like (ChT-L) activity (Homo sapiens, UniProt P28074). The following applies: SDS-activated human 20S.
Method: as §1
In data set [13] the target is human 20S proteasome, trypsin-like (T-L) activity (Homo sapiens, UniProt Q99436). In words: T-L activity of latent human 20S proteasome (Z-LLR-AMC, no SDS). The conditions noted are these: latent human 20S, around 40 µM.
Method: The peptidase activities of 20S proteasome were assayed using fluorogenic tri- and tetra-peptides coupled at their C-termini with 7-amino-4-methylcoumarin group (AMC). The initial concentration of purified yeast 20S proteasome [E0] […] An assay buffer was composed of 50 mM Tris-HCl (pH 8.1) and 0.02% (w/v) SDS (exceptionally, T-L activity was measured in Tris buffer without SDS, that may trigger precipitation of substrates containing the guanidino group [21]). […] The SFTI-1 analogues were incubated with 20S proteasome in assay buffer at 37°C for 30 min. Reactions were performed in 96-well black BRAND plates (Germany). The final volume of the solution in each well was 200 µL. […] Proteasomal subsite activities were determined by monitoring the AMC liberation over time with a Fluorostar Omega (BMG Labtech, Germany) using excitation and emission wavelengths of 380 nm and 450 nm, respectively.
The test system of data set [14] is porcine 20S C–L activity. The arrangement: method as in PMID 19054805. The conditions noted are these: cited from earlier work.
Data set [15] deals with 20S proteasome. Further details: method as in PMID 19054805. The conditions noted are these: cited from earlier work.
Data set [16] deals with bovine β-trypsin. The following applies: cited from earlier work.

One may read the IC50 as the midpoint of a concentration-inhibition curve. With `C/C=C\NC(=O)[C@H]1NC(=O)[C@H](CC(N)=O)NC(=O)[C@@H](NC(=O)C(=O)[C@@H](C)CC)Cc2ccc(O)c(c2)-c2cccc3c2NC(=O)[C@@]3(O)[C@@H]1O` [TMC-95A], the IC50 is 0.0054 µM in [1] (read-out: IC50 ChT-L activity of 20S proteasome); 0.2 µM in [2] (read-out: IC50 T-L activity of 20S proteasome); 0.06 µM in data set [3] (read-out: IC50 C-L activity of 20S proteasome); 4.4 µM in data set [4]; 9.8 µM in data set [5]. For the same compound, the results for the Ki in data set [1] (read-out: Ki app (apparent Ki constant) ChT-L), in data set [2] (read-out: Ki app (apparent Ki constant) T-L) and in data set [3] (read-out: Ki app (apparent Ki constant) C-L) were 0.0011 µM, 0.81 µM and 0.029 µM, respectively.

As to `C/C=C\NC(=O)[C@H]1NC(=O)[C@H](CC(N)=O)NC(=O)[C@@H](NC(=O)C(=O)[C@H](C)CC)Cc2ccc(O)c(c2)-c2cccc3c2NC(=O)[C@@]3(O)[C@H]1O` [TMC-95D], in data set [6], the “times weaker than TMC-95A” value was 20–150 times.

Regarding [Phe^5]SFTI-1, the “Ka with bovine α-chymotrypsin” value in [7] was 2e+09 M⁻¹.

For “bovine pancreatic trypsin inhibitor [BPTI]”, the results for the 50% inhibitory concentration (IC50) in data set [8], in [9] and in data set [11] were 0.79 µM, 0.42 µM and 0.53 µM, respectively. For the same compound, the Ki in [9] (competitive, read-out: inhibition constant Ki, ChT-L) was 2 µM. Moreover, in data set [10], the “effect on C-L activity at concentrations lower than 1 µM” value is listed as “reduced the C-L activity significantly”. Further, the “maximal inhibition of C-L activity” value in data set [10] (even at 12 µM, data not shown) was at most 80%. Moreover, the “inhibition of ChT-L activity at 4 µM” value in data set [12] (4 µM inhibitor) turned out to be 60%. The “inhibition of the ChT-L site at ten-fold higher concentration” value in data set [12] (ten-fold higher than 4 µM, data not shown) amounted to 80%. Moreover, the “reduction of T-L activity at around 40 µM” value in [13] is 60%. Moreover, the “inhibition of porcine 20S C–L activity at 2 µM” value in data set [14] was 86%.

As for sunflower trypsin inhibitor SFTI-1, in [15], the “inhibition of 20S proteasome” value is “does not cause any inhibition”. For the same compound, in data set [10] (read-out: C-like Human 20S IC50, pH 8.1, 37°C, Z-LLE-AMC 79 µM), the half-maximal inhibitory concentration (IC50) came out at 58.2 µM. Moreover, in data set [16], the “association constant Ka with trypsin” value was 1.1e+10 M⁻¹. In addition, in [16] (read-out: inhibitory constant Ki, trypsin), the Ki was 0.0005 µM.

Values taken from PMC3934894, “Inhibition of Human and Yeast 20S Proteasome by Analogues of Trypsin Inhibitor SFTI-1” (PLoS ONE, 2014).
